Experimental data from US10980782B2.

Legend:
Format in all cases: in vivo
[1] = system: human colorectal cancer HCT-15; assay: Human tumor xenograft in nude mice, tumor inhibition rate, HCT-15; conditions: HCT-15 xenograft
Procedure: (§1) 1) Number of animals: there are 6 nude mice for each experimental group and positive control group; weighing: 20-21 g.
(§2) 2) Dosage and regimen of administration: the dose is described in the portion of the experimental results. The injection volume is 0.2 ml/mouse.
(§3) 3) Control groups: the negative control is the corresponding vehicle. The positive control is taxol which is a widely clinically used antitumor drug.
(§4) Under aseptic conditions, a tumor source with vigorous growth was taken to prepare a cell suspension of about 1-3×10^7/ml by a homogenization method. The suspension was injected subcutaneously into subaxillary region of nude mice at 0.2 ml/mouse. The drug was administered upon the tumor touchable. The drug was administered according to the regime. The animals in each group were sacrificed after the administration of three to four weeks. The tumors were taken and weighed, and the tumor inhibition rate was calculated according to the following formula: Tumor inhibition rate %=[(average tumor weight of the negative control group−average tumor weight of the compound administered group)/average tumor weight of the negative control group)×100%

[2] = system: human liver cancer Hep-G2; assay: Human tumor xenograft in nude mice, tumor inhibition rate, Hep-G2
Procedure: as §1, §2, §3, §4

[3] = system: human lung cancer A549; assay: Human tumor xenograft in nude mice, tumor inhibition rate, A549; conditions: alone at 50 mg/kg/d, iv×3, q3d
[4] = system: human prostate cancer PC-3; assay: Human tumor xenograft in nude mice, tumor inhibition rate, PC-3; conditions: PC-3 xenograft, 10 mg/kg/time, iv×7qd
Procedure: 1) Number of animals: there are 6 nude mice for each experimental group and positive control group; weighing: 20-21 g. The negative control has two groups.
as §2, §3, §4

Structure (SMILES): O=c1[nH]cc(F)c(=O)[nH]1 [5 Fu, 5-fluorouracil]
- tumor inhibition rate ([1]; alone at 15 mg/kg/d, iv×7, qd): 42.71%

Structure (SMILES): N.N.[Cl][Pt][Cl] [DDP, Cisplatin]
- tumor inhibition rate ([2]; alone at 1 mg/kg/d, iv×7, qd): 45.33%

Structure (SMILES): Nc1ccn([C@@H]2O[C@H](CO)[C@@H](O)C2(F)F)c(=O)n1 [Gemcitabine]
- tumor inhibition rate [3]: 39.23%

Structure (SMILES): CC(=O)O[C@H]1C(=O)[C@@]2(C)[C@H]([C@H](OC(=O)c3ccccc3)[C@]3(O)C[C@H](OC(=O)[C@H](O)[C@@H](NC(=O)c4ccccc4)c4ccccc4)C(C)=C1C3(C)C)[C@]1(OC(C)=O)CO[C@@H]1C[C@@H]2O [taxol]
- tumor inhibition rate ([2]; 10 mg/kg/time, iv×7qd): 52.2%
- tumor inhibition rate [4]: 41.31%
- tumor inhibition rate ([1]; 10 mg/kg/time, iv×7qd): 52.2%
